Measurements published in patent publication US8354451B2, “Treatment of microbial infections with compounds that inhibit 4-hydroxyphenylpyruvate dioxygenase” (The UWM Research Foundation, Inc., priority 2009, dated 2013).

Key:
Format in all cases: cell-based, Burkholderia cenocepacia
[1] = system: B. cenocepacia C5424 and MH1J; test: Growth rate, BIOSCREEN growth curve analysis; settings: 10 μM and 100 μM NTBC, OD600 over 24 h
Experimental: FIG. 2. Effect of NTBC on growth and viability of B. cenocepacia. B. cenocepacia C5424 (upper graph) and MH1J (lower graph) were cultured in 300 ml of LB by triplicates. Cultures were started at an OD600 of 0.1 and OD600 readings were taken every 30 min over 24 h using the BIOSCREEN® system.
To assess growth rate, overnight cultures were inoculated into fresh medium with a starting optical density at 600 (OD600) of 0.1. Growth rates were determined in 100-well microtiter plates by use of a BIOSCREEN® C automated microbiology growth curve analysis system (MTX Lab Systems, Inc., Vienna, Va.) under high-amplitude shaking conditions.
(§1) B. cenocepacia C5424 and MH1J were cultured in the presence of 10 μM and 100 μM NTBC and assayed for growth rates using the BIOSCREEN® system (FIG. 2). Bacterial viability was examined under similar treatment conditions by fluorescence microscopy using the LIVE/DEAD® kit (Molecular Probes, Invitrogen).

[2] = system: B. cenocepacia MH1J; test: Pigment (pyomelanin) production, supernatant OD597; settings: 24 h culture
Experimental: FIG. 1. NTBC decreases pigment production in B. cenocepacia. B. cenocepacia strains C5424 and MH1J were cultured in presence or absence of NTBC in flasks during 24 h. An aliquot of this culture was used to take the picture in A. To quantify pigment production, 1 ml of culture was centrifuged at 14,000 rpm by 5 min to pellet bacteria. The pigment in the supernatant was quantified at an OD597 nm. The graphic (B) was generated with the results of two independent experiments. Values represent the mean±SD of two independent experiments. ***, p<0.001, Mock (untreated) versus treated with 10 and 100 μM of NTBC.
To test the ability of NTBC 2-[2-nitro-4-(trifluoromethyl)benzoyl]-1,3-cyclohexanedione (NTBC) to decrease pigment production by Burkholderia cenocepacia strains, two strains with the ability to produce pigment were used: (i) the previously described B. cenocepacia C5424, and (ii) B. cenocepacia MH1J, strain with susceptibility to gentamicin.
Bacteria were grown in 10 ml of Luria-Bertani (LB) broth at 37° C. with shaking, using 250 mL-flasks. B. cenocepacia C5424 produced significant pigment at 24 h of culture and MH1J required 48 h to form high pigment production. To quantify the pigment produced by both strains a 1 mL culture was taken at 24 hrs of incubation and the bacteria were pelleted by centrifugation at 14,000 r.p.m. for 5 min. […]

[3] = system: B. cenocepacia C5424 and MH1J; test: Bacterial viability, LIVE/DEAD fluorescence microscopy; settings: 10 μM and 100 μM NTBC, 24 h culture
Experimental: Viability was tested by the LIVE/DEAD® method (Molecular probes, Invitrogen). 1 mL of bacterial culture was collected at 24 h, washed twice with phosphate buffered saline (PBS), and the pellet resuspended in 1 mL of Dubecco's modified Eagle's medium (DMEM) supplemented with 10% fetal bovine serum (FBS). Bacteria were incubated for 15 min at RT in the dark, 5 mL of the culture was used for fluorescence microscopy. Images were acquired using a QIMAGING® (Burnaby, British Columbia, Canada) cooled charge coupled-device camera on an Axioscope 2 (Carl Zeiss, Thornwood, N.Y.) microscope with an X100/1.3 numerical aperture Plan-Neofluor objective and a 50-W mercury arc lamp. Images were digitally processed using the Northern Eclipse version 6.0 imaging analysis software (Empix Imaging, Mississauga, Ontario, Canada).
as §1

O=C1CCCC(=O)C1C(=O)c1ccc(C(F)(F)F)cc1[N+](=O)[O-] [NTBC, 2-(2-nitro-4-trifluoromethylbenzoyl)-1,3-cyclohexanedione]
effect on growth rate [1]: does not affect growth rate
pigment production relative to untreated MH1J ([2]; 10 μM NTBC): 31.53±3.08%
pigment production relative to untreated MH1J ([2]; 100 μM NTBC): 36.41±1.80%
effect on viability [3]: does not affect growth rate or viability
